{
  "source": "patent US11040087B2",
  "about": "“Therapeutic agent for diseases associated with abnormalities in dystroglycan sugar chain modification and method for assaying associated enzyme” (NATIONAL UNIVERSITY CORPORATION KOBE UNIVERSITY, priority 2016, dated 2021)",
  "key": {"[1]": {"test_system": "ISPD-deficient HAP1 cells", "conditions": "ISPD-deficient (KO) HAP1 cells; CDP-ribitol added to culture medium at final concentration 1 mM; culture 24 hours; western blot", "experimental": "(§1) In this Example, for HAP1 cells and HEK cells, cells deficient in ISPD were generated using a CRISPR/CAS9 genome editing method. The HAP1 cells are a haploid cell line derived from cultured human leukemia cells (KBM7), and are cells capable of being subjected to genome editing with high efficiency.\n(§2) The deficiency mutation of the ISPD-deficient cells was confirmed by DNA sequencing. To each culture medium, CDP-ribitol was added at a final concentration of 1 mM, followed by culture for 24 hours. After the culture, cell endogenous dystroglycan was prepared from a cell extract, and the state of glycosylation was confirmed by a western blot method."}, "ISPD-deficient HEK cells": {"test_system": "ISPD-deficient HEK cells", "conditions": "ISPD-deficient (KO) HEK cells; CDP-ribitol 1 mM administered simultaneously with cell transfection reagent (lipofectamine); culture 24 hours; western blot", "experimental": "as §1, §2"}},
  "data": [
    {"substance": "cytidine diphosphate ribitol [CDP-ribitol]", "values": [
      {"measurement": "state of glycosylation of cell endogenous dystroglycan (α-DG)", "setting": "[1]", "value": "caused glycosylation of α-DG similar to that in the normal cells"},
      {"measurement": "state of glycosylation of cell endogenous dystroglycan (α-DG)", "setting": "ISPD-deficient HEK cells", "value": "the restoration of the glycan was confirmed"}
    ]}
  ]
}
